Test [1] has as its target T1, human RNR (purified R1 and R2 subunits) (Homo sapiens, UniProt P23921+P31350).
T1 construct: made in house; host or cells: Escherichia coli BL21(λDE3)pLysS, plasmids pETR1 and pETR2 (pET3a backbone)
T1 sequence (P23921 1-792): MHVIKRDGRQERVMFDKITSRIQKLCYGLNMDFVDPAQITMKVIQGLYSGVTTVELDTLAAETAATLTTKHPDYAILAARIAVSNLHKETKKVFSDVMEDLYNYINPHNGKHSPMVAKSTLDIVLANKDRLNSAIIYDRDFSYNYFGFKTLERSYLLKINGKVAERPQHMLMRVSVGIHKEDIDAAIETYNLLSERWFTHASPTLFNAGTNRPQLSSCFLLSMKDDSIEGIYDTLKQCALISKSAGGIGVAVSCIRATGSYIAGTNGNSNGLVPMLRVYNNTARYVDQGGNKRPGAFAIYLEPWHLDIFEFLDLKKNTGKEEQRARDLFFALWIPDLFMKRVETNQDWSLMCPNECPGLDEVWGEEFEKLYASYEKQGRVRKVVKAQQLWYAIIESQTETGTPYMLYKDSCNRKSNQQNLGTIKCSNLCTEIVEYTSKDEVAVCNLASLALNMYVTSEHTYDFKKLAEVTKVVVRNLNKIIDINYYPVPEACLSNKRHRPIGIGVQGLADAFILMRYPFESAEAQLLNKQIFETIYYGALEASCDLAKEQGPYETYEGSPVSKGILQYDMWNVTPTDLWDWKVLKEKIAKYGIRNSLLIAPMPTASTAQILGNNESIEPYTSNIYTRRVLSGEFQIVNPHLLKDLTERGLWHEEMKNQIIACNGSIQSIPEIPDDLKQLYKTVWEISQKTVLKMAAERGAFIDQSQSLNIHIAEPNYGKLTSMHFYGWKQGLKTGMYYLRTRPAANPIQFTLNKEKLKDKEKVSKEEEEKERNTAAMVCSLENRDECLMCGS
T1 sequence (P31350 1-389): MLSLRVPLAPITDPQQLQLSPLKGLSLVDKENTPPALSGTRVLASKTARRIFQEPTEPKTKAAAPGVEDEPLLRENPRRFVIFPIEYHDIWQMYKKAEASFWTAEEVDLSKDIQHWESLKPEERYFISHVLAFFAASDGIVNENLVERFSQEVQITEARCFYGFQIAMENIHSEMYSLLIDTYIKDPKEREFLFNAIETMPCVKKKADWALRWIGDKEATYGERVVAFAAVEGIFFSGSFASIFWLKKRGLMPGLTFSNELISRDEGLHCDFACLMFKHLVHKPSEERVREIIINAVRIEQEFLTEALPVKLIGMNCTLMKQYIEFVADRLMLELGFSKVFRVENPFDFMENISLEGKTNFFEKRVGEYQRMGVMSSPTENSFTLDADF
As to the kind of experiment: In vitro measurement of human RNR inhibitory activity (conversion of CDP to dCDP, HPLC). The note with it: 100 μM CDP, 37° C., 30 minutes, read-out: RNR Inhibition (IC50). In kind it is biochemical.

A further test relates to HeLa S3 cells. The experiment in a line: Test for growth inhibition of HeLa S3 cells. In kind it is cell-based. The settings on record: HeLa S3 cells, 72 hours with test compound, Cell Proliferation Kit II, read-out: Cell growth inhibition (IC50). As for the experimental part:
Test for Growth Inhibition of Hela S3 Cells
HeLa S3 cells prepared at 1×10^4 cells/ml in MEM culture medium containing 10% fetal bovine serum and 2 mM glutamine were added to each well of a 96-well microtiter plate (0.1 ml for each well). The cells were cultured at 37° C. in a CO2 incubator for 24 hours, and then 0.05 ml of test compound appropriately diluted with the above medium was added to each well, and then the mixture was cultured at 37° C. in a CO2 incubator for 72 hours. After the culture supernatant was removed, each well was washed with 0.1 ml of PBS buffer twice, and 0.1 ml of the aforementioned medium was added to each well again.
Cell Proliferation Kit II (Boehringer Mennheim) was used for measurement of cell number in each well. After a coloring reaction reagent was added, the plate was warmed to 37° C. in a CO2 incubator for 3 hours. Then, absorbances at 490 nm and 655 nm were measured by a microplate reader, and a value (difference of absorbance) was calculated for each well by subtracting the absorbance at […] from the absorbance at 490 nm. By comparing the differences of absorbance for cells without treatment and cells treated with a test compound at a known concentration, a concentration of test compound which inhibited the cell growth by 50% was calculated, and the value obtained was determined as IC50. The values of RNR inhibitory activity obtained in Example 8, and the values of cell growth inhibitory activity obtained in Example 9 are shown in the following tables (the compound numbers used in the tables correspond to the compound numbers shown in the aforementioned tables).

From patent US6608061B2, “Bisaryl compound and medicament for cancer treatment comprising the same” (Kyoma Hakko Kogyo Co., Ltd., priority 1997, dated 2003) come the findings set out here.

Where two headings read alike, the source gives them in different places.

As a reminder, the IC50 is the concentration at which inhibition is half-maximal. Consider `Oc1ccc(SCc2cccc(CSc3ccc(O)cc3)n2)cc1` [Compound 1], for which the IC50 in test [1] turned out to be 4.26 µM; in the test with HeLa S3 cells (Homo sapiens, HeLa S3, 72 h), 5.15 µM.
For `O=C1N(CS(=O)(=O)CCSc2ccc(O)cc2)CCCN1CS(=O)(=O)CCSc1ccc(O)cc1` [Compound 7], in that order: 4.82 µM and above 101 µM.
For the compound `Oc1ccc(SCCNCCSc2ccc(O)cc2)cc1` [Compound 45], the IC50 in test [1] was found to be 3.64 µM; in the test on HeLa S3 cells (Homo sapiens, HeLa S3, 72 h), 5.64 µM.
For `N=C(N)N(CCSc1ccc(O)cc1)CCSc1ccc(O)cc1` [Compound 49], in that order: 5.45 µM and 16 µM.
Consider `O=C(CCSc1ccc(O)cc1)N(CCSc1ccc(O)cc1)CCSc1ccc(O)cc1` [Compound 52], for which the IC50 came out at 4.38 µM in test [1] and 6.5 µM in the test on HeLa S3 cells (Homo sapiens, HeLa S3, 72 h).
As for `O=CN(CCSc1ccc(O)cc1)CCSc1ccc(O)cc1` [Compound 53], the IC50 in test [1] was determined as 1.05 µM; in the test with HeLa S3 cells (Homo sapiens, HeLa S3, 72 h), 1.71 µM.
Consider `CC(=O)N(CCSc1ccc(O)cc1)CCSc1ccc(O)cc1` [Compound 54], for which the IC50 in test [1] stood at 0.48 µM; with HeLa S3 cells (Homo sapiens, HeLa S3, 72 h), 4.63 µM.
The corresponding values for `O=C(N(CCSc1ccc(O)cc1)CCSc1ccc(O)cc1)N1CCCc2ccccc21` [Compound 57] are 0.73 µM and 14.4 µM.
For the compound `CC1CCc2ccccc2N1C(=O)N(CCSc1ccc(O)cc1)CCSc1ccc(O)cc1` (stereo not shown) [Compound 58], the IC50 was 4.76 µM in test [1] and 18.6 µM in the test with HeLa S3 cells (Homo sapiens, HeLa S3, 72 h).
The corresponding values for `NCCN(CCSc1ccc(O)cc1)CCSc1ccc(O)cc1` [Compound 59] are 5.73 µM and 5.81 µM.
The corresponding values for `CCN(CCSc1ccc(O)cc1)CCSc1ccc(O)cc1` [Compound 71] are 1.23 µM and 3.94 µM.
The corresponding values for `C#CCN(CCSc1ccc(O)cc1)CCSc1ccc(O)cc1` [Compound 73] are 0.6 µM and 1.61 µM.
As for `C=CCN(CCSc1ccc(O)cc1)CCSc1ccc(O)cc1` [Compound 74], the IC50 in test [1] is 0.82 µM; in the test with HeLa S3 cells (Homo sapiens, HeLa S3, 72 h), 2 µM.
The corresponding values for `Oc1ccc(SCCN(CCSc2ccc(O)cc2)CC2CC2)cc1` [Compound 75] are 1.66 µM and 3.56 µM.
For `CCN(CC)C(=O)CCN(CCSc1ccc(O)cc1)CCSc1ccc(O)cc1` [Compound 80], in that order: 0.74 µM and 1.43 µM.
For `CC(=O)CN(CCSc1ccc(O)cc1)CCSc1ccc(O)cc1` [Compound 81], in that order: 0.29 µM and 1.23 µM.
With `NC(=O)NCCN(CCSc1ccc(O)cc1)CCSc1ccc(O)cc1` [Compound 82], the IC50 in test [1] worked out at 1.42 µM; with HeLa S3 cells (Homo sapiens, HeLa S3, 72 h) it was 1.3 µM.
The corresponding values for `CC(=O)NCCN(CCSc1ccc(O)cc1)CCSc1ccc(O)cc1` [Compound 83] are 2.95 µM and 5.17 µM.
For `O=C1CCC(=O)N1CCN(CCSc1ccc(O)cc1)CCSc1ccc(O)cc1` [Compound 86], in that order: 3.14 µM and 3.78 µM.
As for `CSCCN(CCSc1ccc(O)cc1)CCSc1ccc(O)cc1` [Compound 87], the 50% inhibitory concentration (IC50) in test [1] amounted to 1.01 µM; in the test on HeLa S3 cells (Homo sapiens, HeLa S3, 72 h), 2.57 µM.
The corresponding values for `Oc1ccc(SCCN(CCSc2ccc(O)cc2)CC2OCCO2)cc1` [Compound 88] are 1.79 µM and 3.22 µM.
For `Oc1ccc(SCCN(CCSc2ccc(O)cc2)Cc2cccs2)cc1` [Compound 89], in that order: 1.46 µM and 4.66 µM.
Take `Oc1ccc(SCCN(CCSc2ccc(O)cc2)Cc2ccco2)cc1` [Compound 90]: the IC50 in test [1] is 2.03 µM; with HeLa S3 cells (Homo sapiens, HeLa S3, 72 h) it was 6.38 µM.
The corresponding values for `Oc1ccc(SCCN(CCSc2ccc(O)cc2)Cc2ccccc2O)cc1` [Compound 92] are 0.89 µM and 2.14 µM.
In the case of `Oc1ccc(SCCN(CCSc2ccc(O)cc2)Cc2cccc(O)c2)cc1` [Compound 93], the IC50 in test [1] came out at 0.63 µM; with HeLa S3 cells (Homo sapiens, HeLa S3, 72 h), 9.04 µM.
For `OCCCN(CCSc1ccc(O)cc1)CCSc1ccc(O)cc1` [Compound 95], in that order: 0.88 µM and 3.56 µM.
`Oc1ccc(SCCN(CCSc2ccc(O)cc2)Cc2ccccc2)cc1` [Compound 98]: the IC50 in test [1] worked out at 3.36 µM; in the test with HeLa S3 cells (Homo sapiens, HeLa S3, 72 h), 15 µM.
The corresponding values for `Oc1ccc(SCCN(CCSc2ccc(O)cc2)Cc2cccnc2)cc1` [Compound 99] are 2.79 µM and 5.8 µM.
The corresponding values for `Oc1ccc(SCCN(CCSc2ccc(O)cc2)Cc2ccc3ccccc3n2)cc1` [Compound 101] are 5.05 µM and 12.9 µM.
`COCCN(CCSc1ccc(O)cc1)CCSc1ccc(O)cc1` [Compound 104]: the IC50 is 2.11 µM in test [1] and 1.74 µM in the test on HeLa S3 cells (Homo sapiens, HeLa S3, 72 h).
For `Oc1ccc(SCCN(CCSc2ccc(O)cc2)Cc2ccccc2F)cc1` [Compound 105], in that order: 3.99 µM and 9.07 µM.
The corresponding values for `Oc1ccc(SCCN(CCSc2ccc(O)cc2)Cc2ccc(F)cc2)cc1` [Compound 106] are 4.64 µM and 6.77 µM.
`O=C(CCN(CCSc1ccc(O)cc1)CCSc1ccc(O)cc1)N1CCOCC1` [Compound 107]: the half-inhibitory concentration (IC50) in test [1] is 4.2 µM; in the test on HeLa S3 cells (Homo sapiens, HeLa S3, 72 h), 24.9 µM.
The corresponding values for `O=C(CCN(CCSc1ccc(O)cc1)CCSc1ccc(O)cc1)N1CCCCC1` [Compound 108] are 0.64 µM and 2.64 µM.
The corresponding values for `CCN(CC)CCN(CCSc1ccc(O)cc1)CCSc1ccc(O)cc1` [Compound 109] are 2.36 µM and 38.9 µM.
For `Oc1ccc(SCCN(CCSc2ccc(O)cc2)CCN2CCCCC2)cc1` [Compound 111], in that order: 1.85 µM and 11.4 µM.
Consider `CCC(=O)N(CCSc1ccc(O)cc1)CCSc1ccc(O)cc1` [Compound 113], for which the IC50 in test [1] worked out at 4.77 µM; in the test with HeLa S3 cells (Homo sapiens, HeLa S3, 72 h), 3.8 µM.
For `O=C(c1ccccc1)N(CCSc1ccc(O)cc1)CCSc1ccc(O)cc1` [Compound 114], in that order: 3.44 µM and 2.74 µM.
For `O=C(c1ccccn1)N(CCSc1ccc(O)cc1)CCSc1ccc(O)cc1` [Compound 115], in that order: 4.14 µM and 6.14 µM.
For the compound `O=C(c1cccnc1)N(CCSc1ccc(O)cc1)CCSc1ccc(O)cc1` [Compound 116], the IC50 in test [1] was found to be 4.13 µM; in the test on HeLa S3 cells (Homo sapiens, HeLa S3, 72 h) it was 3.02 µM.
For `O=C(c1ccncc1)N(CCSc1ccc(O)cc1)CCSc1ccc(O)cc1` [Compound 117], in that order: 1.69 µM and 2.72 µM.
The corresponding values for `CS(=O)(=O)N(CCSc1ccc(O)cc1)CCSc1ccc(O)cc1` [Compound 118] are 6.87 µM and 7.78 µM.
For the compound `O=C(N1CCOCC1)N(CCSc1ccc(O)cc1)CCSc1ccc(O)cc1` [Compound 124], the IC50 in test [1] was 0.09 µM; in the test on HeLa S3 cells (Homo sapiens, HeLa S3, 72 h), 3.68 µM.
For the compound `NC(=O)CN(CCSc1ccc(O)cc1)CCSc1ccc(O)cc1` [Compound 224], in the test on HeLa S3 cells, the IC50 was determined as 0.4 µM.
Still for that read-out and setting: for `NC(=O)CN(CCSc1ccc(O)cc1)CCSc1ccc(O)cc1` [Compound 225] the value was 0.55 µM.
